From ChEMBL document CHEMBL1149031, “New bioactive taxoids from cell cultures of Taxus baccata” (1994)

Key:
[1] = species on record: Bos taurus; test: Ratio of compound ED50 to taxol ED50 for bovine brain tubulin assembly at 1 mg/ml of tubulin concentration
[2] = species on record: Bos taurus; test: Ratio of compound ED50 to taxol ED50 for bovine brain tubulin assembly at 1.5 mg/ml of tubulin concentration
[3] = species on record: Bos taurus; test: Induction of bovine brain tubulin assembly at 1.5 mg/ml of tubulin concentration
[4] = species on record: Bos taurus; test: Induction of bovine brain tubulin assembly at 1 mg/ml of tubulin concentration
[5] = test system: SF-539; test: Cytotoxicity against human SF539 cells; format: functional
[6] = test system: SNB-75; test: Cytotoxicity against human SNB75 cells; format: functional; conditions: for CC50: read-out: LC50 (the source's name)
[7] = test system: DMS-114; test: Cytotoxicity against human DMS114 cells; format: functional; conditions: for CC50: read-out: LC50 (the source's name)
[8] = test system: HOP-62; test: Cytotoxicity against human HOP62 cells; format: functional
[9] = test system: NCI-H460; test: Cytotoxicity against human NCI-H460 cells; format: functional
[10] = test system: OVCAR-3; test: Cytotoxicity against human OVCAR-3 cells; format: functional
[11] = test system: COLO 205; test: Cytotoxicity against human COLO205 cells; format: functional; conditions: for CC50: read-out: LC50 (the source's name)

Compound	Ratio ED50 [1]	Ratio ED50 [2]	ED50 [3]	ED50 [4]	GI50 [5]	TGI [5]	GI50 [6]	TGI [6]	CC50 [6]	GI50 [7]	TGI [7]	CC50 [7]	GI50 [8]	TGI [8]	GI50 [9]	TGI [9]	GI50 [10]	TGI [10]	GI50 [11]	TGI [11]	other results
C/C=C(\C)C(=O)N[C@@H](c1ccccc1)[C@@H](O)C(=O)O[C@H]1C[C@@]2(O)[C@@H](OC(=O)c3ccccc3)[C@@H]3[C@]4(OC(C)=O)CO[C@@H]4C[C@H](O)[C@@]3(C)C(=O)[C@H](OC(C)=O)C(=C1C)C2(C)C	1.05	1.11	950 nM	850 nM	–	–	–	–	–	–	–	–	–	–	–	–	–	–	–	–	–
CCCC(=O)N[C@@H](c1ccccc1)[C@@H](O)C(=O)O[C@H]1C[C@@]2(O)[C@@H](OC(=O)c3ccccc3)[C@@H]3[C@]4(OC(C)=O)CO[C@@H]4C[C@H](O)[C@@]3(C)C(=O)[C@H](OC(C)=O)C(=C1C)C2(C)C	2.04	–	–	2350 nM	–	–	–	–	–	–	–	–	–	–	–	–	–	–	–	–	–
CCCCCC(=O)N(C)[C@@H](c1ccccc1)[C@@H](O)C(=O)O[C@H]1C[C@@]2(O)[C@@H](OC(=O)c3ccccc3)[C@@H]3[C@]4(OC(C)=O)CO[C@@H]4C[C@H](O)[C@@]3(C)C(=O)[C@H](OC(C)=O)C(=C1C)C2(C)C	1.66	–	–	1910 nM	–	–	–	–	–	–	–	–	–	–	–	–	–	–	–	–	–
CCCCCC(=O)N[C@@H](c1ccccc1)[C@@H](O)C(=O)O[C@H]1C[C@@]2(O)[C@@H](OC(=O)c3ccccc3)[C@@H]3[C@]4(OC(C)=O)CO[C@@H]4C[C@H](O)[C@@]3(C)C(=O)[C@H](O)C(=C1C)C2(C)C	2.57	–	–	2960 nM	–	–	–	–	–	–	–	–	–	–	–	–	–	–	–	–	–
CC(=O)O[C@H]1C(=O)[C@@]2(C)[C@H]([C@H](OC(=O)c3ccccc3)[C@]3(O)C[C@H](OC(=O)[C@H](O)[C@@H](NC(=O)c4ccccc4)c4ccccc4)C(C)=C1C3(C)C)[C@]1(OC(C)=O)CO[C@@H]1C[C@@H]2O [PACLITAXEL]	–	–	760 nM	950 nM	3.66 nM	89.9 nM	8.08 nM	77.3 nM	> 1000 nM	12.3 nM	61.2 nM	> 1000 nM	67.1 nM	> 1000 nM	21.9 nM	> 1000 nM	19.7 nM	48.7 nM	1.76 nM	43.2 nM	CC50 ([5]; read-out: LC50 (the source's name)): > 25000 nM; CC50 [11]: 145 nM
CCCCCC(=O)N[C@@H](c1ccccc1)[C@@H](O)C(=O)O[C@H]1C[C@@]2(O)[C@@H](OC(=O)c3ccccc3)[C@@H]3[C@]4(OC(C)=O)CO[C@@H]4C[C@H](O)[C@@]3(C)C(=O)[C@H](OC(C)=O)C(=C1C)C2(C)C [TAXOL C]	1.05	1.82	1400 nM	1000 nM	< 10 nM	< 10 nM	< 10 nM	19.2 nM	> 100000 nM	< 10 nM	23.8 nM	21700 nM	< 10 nM	12.1 nM	< 10 nM	349 nM	< 10 nM	< 10 nM	< 10 nM	22.9 nM	LC50 (concentration killing 50% of cells) [8]: 32000 nM; LC50 [9]: 69800 nM; LC50 [10]: > 100000 nM; CC50 [11]: 23300 nM
